Reference: patent US20130281512A1, “AGENTS FOR TREATING DISORDERS INVOLVING MODULATION OF RYANODINE RECEPTORS” (LES LABORATOIRES SERVIER, priority 2012, published 2013)

Key:
[1] = system: rat hepatocytes; assay: Metabolic stability in rat hepatocytes; format: in vitro ADME
Procedure: Compound solubilization: Stock solutions were made in DMSO, and working solutions in William medium containing 1/10 rat plasma or 1/4 human plasma.
Metabolic stability determination: Compounds were incubated at 10^−7 M with isolated hepatocytes (6E+5 cells/ml for rat hepatocytes and 4E+5 cells/ml for human hepatocytes) at 37° C. in plasma from the same species diluted in Wiliams medium (1/10 dilution for rat and 1/4 dilution for human). Sampling times were performed at 0, 10, 20, 30, 60 and 120 min and enzymatic reaction stopped with methanol (v/v). Proteins were precipitated by centrifugation and the supernatant was analyzed by LC/MS/MS. Clint expressed as ml/min/g protein were calculated as for hepatic microsomes using a ratio of 0.134 mg protein/ml for 4E+5 cells/ml for human and 0.201 mg protein/ml for 6E+5 cells/ml for rat. The presence of the reference drug and the potential metabolite was checked by LC/MS/MS during the assay in each sample.

[2] = system: mdx mice; assay: Muscle function in mouse muscular dystrophy model (mdx): voluntary wheel activity, EDL specific force; format: in vivo
Procedure: Voluntary activity on wheel, body weight, and average water consumption were measured in the first 3 weeks. Specific muscle force was measured after 4 weeks of treatment, at the end of the study.
Distance traveled (Km/day) over a 24 hr period was analyzed as an index of improved functional activity (see, DMD_M.2.1.002 SOP at http://www.treat-nmd.eu/). At the conclusion of the study, Extensor digitorum longus (EDL) muscle was isolated for muscle force analysis as further described hereinbelow. Blood was collected from each mouse by retro-orbital bleeds at the end of the study (after end of dark cycle—about 7 AM) to assess drug plasma concentrations. Experiments were blinded.
At the end of the study, EDL muscle was dissected from hind limbs for isometric force analysis using the 407A Muscle Test System from Aurora Scientific (Aurora, Ontario, Canada). A 6-0 suture were tied to each tendon and the entire EDL muscle, tendon to tendon, was transferred to a Ragnoti bath of O2/CO2 (95%/5%) bubbled Tyrode solution (in mM: NaCl 121, KCl 5.0, CaCl2 1.8, MgCl2, NaH2PO4, NaHCO3 24, and glucose 5.5). Using the sutures, one tendon was tied vertically to a stainless steel hook connected to a force transducer The other sutured tendon was clamped down into a moving arm on the Aurora system. The EDL muscle was stimulated to contract using an electrical field between two platinum electrodes. At the start of each experiment, muscle length was adjusted to yield the maximum force. Force-frequency relationships were determined by triggering contraction using incremental stimulation frequencies (5-250 Hz for 200 ms at suprathreshold voltage). Between stimulations the muscle was allowed to rest ˜3 min. At the end of the force measurement, the length (Lo) of the EDL muscle while sutured in the Aurora system was measured excluding the tendons. The EDL muscle was then removed from the system and weighed after clipping the end tendons and sutures off. The EDL muscle was then frozen in liquid nitrogen. The cross-sectional area (mm^2) of the EDL muscle was calculated by dividing the EDL muscle weight by the EDL muscle length and the mammalian muscle density constant of […] (Yamada, T., et al. Arthritis and rheumatism 60:3280-3289). To determine EDL specific force (kN/m^2), the absolute tetanic force was divided by the EDL muscle cross-sectional area.
For statistical analysis of distance traveled, change from baseline was calculated for each day by subtracting the baseline value (defined as the mean of the two measurements obtained on Day −1 and Day −2) from each post dose assessment. Change from baseline was then statistically analyzed with a repeated measures analysis of variance model with fixed effects for treatment, day and treatment by day interaction. Baseline was included as a covariate and mouse was included as a random effect. The most appropriate covariance structure was determined through investigation of the Akaike's Information Criterion (AIC) and Bayesian Information Criterion (BIC). The covariance structures investigated were autoregressive, compound symmetry, unstructured, and toeplitz. The optimal covariance structure selected was compound symmetry. From the model, point estimates and associated 95% confidence intervals (CI) for the difference in change from baseline between each ARM210 treated mice group and vehicle treated group (for both mdx and C57BL/6 mice) were obtained for each day, each week, and the entire assessment period from Day 1 to Day 19. As this study is exploratory in nature, no adjustments in multiple comparisons were made.
Specific force was analyzed using a repeated measures analysis of variance model with fixed effects for treatment, frequency and treatment by frequency interaction and mouse as a random effect. Similar to the analysis described above, the optimal covariance structure was chosen from among autoregressive, compound symmetry, unstructured, and toeplitz. […]

[3] = mdx and WT mice, drinking water

## COc1ccc2c(c1)CN(Cc1ccc(C(=O)O)cc1)CCS2 [Compound 1, 4-((7-Methoxy-2,3-dihydrobenzo[f][1,4]thiazepin-4(5H)-yl)methyl)benzoic acid]
[1]
  MF rat %: 90%
[1]; 6.00E+05 cells/ml, 10^-7 M
  Clint: 5 ml/min/gprot
[2]; [3]
  body weight: did not affect
  water consumption: No dose-dependent effects
[2]; mdx mice, 50 mg/kg/d, stimulation frequencies of 150 Hz and above, P<0.05
  specific muscle force (EDL): statistically significant increase
[2]; mdx mice, 5, 10 and 50 mg/kg/d, 4 weeks
  specific force of EDL muscle: increased specific force in mdx muscle dose-dependently
[2]; mdx mice, 10 and 50 mg/kg/d (target dose) sodium salt in drinking water, day 1 to day 19, vs vehicle, P<0.001
  distance traveled on voluntary wheel: significantly longer distances
[2]; mdx mice, drinking water
  time to treatment effect on wheel activity after treatment initiation: 2 to 3 days
